Numbered stars: 1 amine (or outer) side, 2 acyl side, 3 side chain; on linkers, the order of the positions; unused ones are H or OH. Square brackets hold non-standard residues; d marks the D form. Peptide text beside a SMILES is read from it. X1 = O=C(C[C@@H]1O[C@H](CN[*:1])[C@@H](O)[C@H]1O)[*:2]
Columns and labels:
Integrin alpha-V/beta-3 [1] = target: T1, Integrin alpha-V/beta-3 (Homo sapiens, UniProt P05106+P06756); assay: Displacement of [125I]echistatin from alphaV-beta3 integrin of human skin fibroblasts; format: protein-complex assay
T1 sequence (P05106 27-788 limits assumed): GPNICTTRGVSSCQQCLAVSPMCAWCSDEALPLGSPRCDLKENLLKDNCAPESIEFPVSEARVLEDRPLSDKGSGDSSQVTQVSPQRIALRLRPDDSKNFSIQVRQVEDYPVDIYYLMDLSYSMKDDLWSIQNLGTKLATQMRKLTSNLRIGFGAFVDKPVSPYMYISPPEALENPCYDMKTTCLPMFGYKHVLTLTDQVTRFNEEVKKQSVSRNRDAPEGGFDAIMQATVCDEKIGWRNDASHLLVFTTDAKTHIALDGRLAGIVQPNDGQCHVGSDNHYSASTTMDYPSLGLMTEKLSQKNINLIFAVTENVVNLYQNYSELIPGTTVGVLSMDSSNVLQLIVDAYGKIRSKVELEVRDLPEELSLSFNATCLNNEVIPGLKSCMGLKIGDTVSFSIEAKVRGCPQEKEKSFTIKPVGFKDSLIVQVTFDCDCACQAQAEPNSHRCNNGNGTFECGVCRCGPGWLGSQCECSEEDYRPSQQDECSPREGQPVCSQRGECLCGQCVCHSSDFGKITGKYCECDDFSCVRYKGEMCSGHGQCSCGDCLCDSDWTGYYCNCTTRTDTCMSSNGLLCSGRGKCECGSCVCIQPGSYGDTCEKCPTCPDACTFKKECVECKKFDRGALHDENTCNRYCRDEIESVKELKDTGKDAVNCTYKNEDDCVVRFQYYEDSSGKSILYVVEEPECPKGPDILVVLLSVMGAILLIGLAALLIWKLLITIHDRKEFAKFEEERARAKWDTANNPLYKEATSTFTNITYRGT
T1 sequence (P06756 31-889 limits assumed): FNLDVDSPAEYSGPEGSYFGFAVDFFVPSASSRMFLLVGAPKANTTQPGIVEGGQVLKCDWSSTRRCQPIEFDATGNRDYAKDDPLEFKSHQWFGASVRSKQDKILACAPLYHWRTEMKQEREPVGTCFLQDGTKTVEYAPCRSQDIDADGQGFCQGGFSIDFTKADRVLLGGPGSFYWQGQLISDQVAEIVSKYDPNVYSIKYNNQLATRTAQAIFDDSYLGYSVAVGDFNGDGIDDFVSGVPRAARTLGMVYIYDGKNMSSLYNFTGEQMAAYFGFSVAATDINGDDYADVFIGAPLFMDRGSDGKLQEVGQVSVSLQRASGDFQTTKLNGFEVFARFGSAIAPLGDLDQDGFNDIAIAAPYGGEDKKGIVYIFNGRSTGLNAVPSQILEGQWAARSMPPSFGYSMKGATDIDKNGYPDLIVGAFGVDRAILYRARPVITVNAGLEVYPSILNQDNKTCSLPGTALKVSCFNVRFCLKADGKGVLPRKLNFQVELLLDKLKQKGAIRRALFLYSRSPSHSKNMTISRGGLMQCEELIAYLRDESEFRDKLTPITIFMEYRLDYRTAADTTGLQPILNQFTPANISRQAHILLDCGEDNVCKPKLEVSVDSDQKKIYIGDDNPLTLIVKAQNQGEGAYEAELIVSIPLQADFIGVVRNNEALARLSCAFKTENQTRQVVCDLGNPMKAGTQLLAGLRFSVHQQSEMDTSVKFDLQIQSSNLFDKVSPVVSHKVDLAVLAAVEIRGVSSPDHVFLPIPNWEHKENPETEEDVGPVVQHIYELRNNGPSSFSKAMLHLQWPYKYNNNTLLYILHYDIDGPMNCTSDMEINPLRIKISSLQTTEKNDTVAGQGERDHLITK
T1 sequence (P06756 891-1048 limits assumed): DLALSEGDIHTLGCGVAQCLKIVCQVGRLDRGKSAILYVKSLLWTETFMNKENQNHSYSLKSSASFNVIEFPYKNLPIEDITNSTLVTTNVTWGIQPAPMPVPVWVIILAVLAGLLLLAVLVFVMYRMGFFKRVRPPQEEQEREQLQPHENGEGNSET

[2] = target: T2, Integrin alpha-IIb/beta-3 (Homo sapiens, UniProt P05106+P08514); assay: Displacement of [125I]echistatin from alphaIIb-beta3 integrin of human platelets
T2 sequence (P05106 27-788 limits assumed): as the sequence (P05106 27-788 limits assumed) above
T2 sequence (P08514 32-887 limits assumed): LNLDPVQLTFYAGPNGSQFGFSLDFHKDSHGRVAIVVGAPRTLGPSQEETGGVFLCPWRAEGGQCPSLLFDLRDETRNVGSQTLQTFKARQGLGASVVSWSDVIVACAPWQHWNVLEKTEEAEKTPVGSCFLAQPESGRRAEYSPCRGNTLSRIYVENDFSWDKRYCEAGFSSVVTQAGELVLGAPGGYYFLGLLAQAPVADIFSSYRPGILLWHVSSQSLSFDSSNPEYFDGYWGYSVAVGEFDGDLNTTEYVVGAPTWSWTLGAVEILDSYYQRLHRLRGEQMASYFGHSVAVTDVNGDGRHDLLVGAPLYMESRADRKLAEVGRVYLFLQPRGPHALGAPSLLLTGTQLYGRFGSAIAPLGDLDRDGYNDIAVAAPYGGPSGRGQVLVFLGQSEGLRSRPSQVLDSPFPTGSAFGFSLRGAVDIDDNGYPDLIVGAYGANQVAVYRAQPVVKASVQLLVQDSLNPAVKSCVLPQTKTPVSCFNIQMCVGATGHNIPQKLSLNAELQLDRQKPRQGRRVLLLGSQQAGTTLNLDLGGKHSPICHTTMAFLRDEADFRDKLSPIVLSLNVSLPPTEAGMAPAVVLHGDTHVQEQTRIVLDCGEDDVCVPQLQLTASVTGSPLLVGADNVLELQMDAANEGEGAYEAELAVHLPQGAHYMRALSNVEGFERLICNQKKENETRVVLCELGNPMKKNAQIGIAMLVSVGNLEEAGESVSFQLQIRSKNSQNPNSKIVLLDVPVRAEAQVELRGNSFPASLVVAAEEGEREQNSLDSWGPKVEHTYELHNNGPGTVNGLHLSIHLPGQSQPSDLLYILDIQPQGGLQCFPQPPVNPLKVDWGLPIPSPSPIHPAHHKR
T2 sequence (P08514 891-1039 limits assumed): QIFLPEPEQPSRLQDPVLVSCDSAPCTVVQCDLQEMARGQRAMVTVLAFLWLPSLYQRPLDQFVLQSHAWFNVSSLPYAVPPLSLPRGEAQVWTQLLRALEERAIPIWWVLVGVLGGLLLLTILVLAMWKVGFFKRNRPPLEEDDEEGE

Integrin alpha-V/beta-3 [3] = target: T1, Integrin alpha-V/beta-3; assay: Displacement of [125I]-echistatin from alphaV-beta3 integrin of human skin fibroblasts at 1 mM (Inactive); format: protein-complex assay
[4] = target: T2, Integrin alpha-IIb/beta-3; assay: Displacement of [125I]echistatin from alphaIIb-beta3 integrin of human platelets at 1 mM (Inactive)

IC50 (Integrin alpha-V/beta-3 [1])	IC50 [2]	IC50 (Integrin alpha-V/beta-3 [3])	IC50 [4]	SMILES
597 µM	198 µM			N=C(N)NCCCC1NC(=O)C[C@@H]2O[C@H](CNC(=O)C[C@@H]3O[C@H](CNC(=O)C(CC(=O)O)NC(=O)CNC1=O)[C@@H](O)[C@H]3O)[C@@H](O)[C@H]2O (stereo not given in full)
		Not Active	Not Active	N=C(N)NCCCC1NC(=O)C[C@@H]2O[C@H](CNC(=O)C(CC(=O)O)NC(=O)C[C@@H]3O[C@H](CNC1=O)[C@@H](O)[C@H]3O)[C@@H](O)[C@H]2O (stereo not given in full)

Second part, the molecule before the results:

SMILES	IC50 (Integrin alpha-V/beta-3 [1])	IC50 [2]	IC50 (Integrin alpha-V/beta-3 [3])	IC50 [4]
N=C(N)NCCC[C@@H]1NC(=O)C[C@@H]2O[C@H](CNC(=O)[C@H](CC(=O)O)NC(=O)CNC1=O)[C@@H](O)[C@H]2O	1.49 µM	0.384 µM		
CC(C)[C@@H]1NC(=O)CNC(=O)C[C@@H]2O[C@H](CNC(=O)[C@H](CCCN=C(N)N)NC(=O)[C@H](CC(=O)O)NC1=O)[C@@H](O)[C@H]2O (cyclo(DR[X1]GV))			Not Active	Not Active
CC(C)[C@@H]1NC(=O)[C@H](CC(=O)O)NC(=O)CNC(=O)[C@H](CCCN=C(N)N)NC(=O)C[C@@H]2O[C@H](CNC1=O)[C@@H](O)[C@H]2O (cyclo(RGDV[X1]))	98.1 µM	32.2 µM		
